Experimental findings from ChEMBL document CHEMBL1145152, “Design, synthesis, and antifolate activity of new analogues of piritrexim and other diaminopyrimidine dihydrofolate reductase inhibitors with omega-carboxyalkoxy or omega-carboxy-1-alkynyl substitution in the side chain” (J Med Chem, 2005) are described below.

Each structure is given as a SMILES string.

The target in test [1] is T1, Dihydrofolate reductase (Rattus norvegicus, UniProt Q920D2).
T1 sequence (Q920D2 whole entry): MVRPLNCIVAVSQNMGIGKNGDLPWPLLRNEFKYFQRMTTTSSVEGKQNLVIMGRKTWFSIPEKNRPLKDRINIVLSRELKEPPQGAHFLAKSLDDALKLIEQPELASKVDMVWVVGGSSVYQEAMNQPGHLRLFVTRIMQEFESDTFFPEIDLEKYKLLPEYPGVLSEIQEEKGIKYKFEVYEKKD
Description: Inhibitory concentration against rat DHFR

Test [2] has as its target T2, Dihydrofolate reductase (Mycobacterium avium, UniProt O30463).
T2 sequence (O30463 whole entry): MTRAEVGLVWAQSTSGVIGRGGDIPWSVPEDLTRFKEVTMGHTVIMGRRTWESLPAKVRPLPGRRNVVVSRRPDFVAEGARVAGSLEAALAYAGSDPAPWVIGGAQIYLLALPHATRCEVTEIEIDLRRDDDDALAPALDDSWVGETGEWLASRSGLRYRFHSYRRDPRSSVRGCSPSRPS
Description: Inhibitory concentration against Mycobacterium avium DHFR

For test [3], the target named is T3, Dihydrofolate reductase (Pneumocystis carinii, UniProt P16184).
T3 sequence (P16184 whole entry): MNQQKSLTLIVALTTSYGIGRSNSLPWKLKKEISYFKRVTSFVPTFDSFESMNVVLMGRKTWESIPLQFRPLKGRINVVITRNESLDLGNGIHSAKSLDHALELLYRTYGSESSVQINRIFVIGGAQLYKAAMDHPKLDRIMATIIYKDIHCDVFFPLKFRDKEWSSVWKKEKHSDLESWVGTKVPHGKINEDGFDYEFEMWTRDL
Description: Inhibitory concentration against Pneumocystis carinii DHFR

Test [4] in a line: Selectivity index measured as IC50(Rat)/IC50(Mycobacterium avium).
Test [5] deals with T4, Bifunctional dihydrofolate reductase-thymidylate synthase (Toxoplasma gondii, UniProt Q07422).
T4 sequence (Q07422 whole entry): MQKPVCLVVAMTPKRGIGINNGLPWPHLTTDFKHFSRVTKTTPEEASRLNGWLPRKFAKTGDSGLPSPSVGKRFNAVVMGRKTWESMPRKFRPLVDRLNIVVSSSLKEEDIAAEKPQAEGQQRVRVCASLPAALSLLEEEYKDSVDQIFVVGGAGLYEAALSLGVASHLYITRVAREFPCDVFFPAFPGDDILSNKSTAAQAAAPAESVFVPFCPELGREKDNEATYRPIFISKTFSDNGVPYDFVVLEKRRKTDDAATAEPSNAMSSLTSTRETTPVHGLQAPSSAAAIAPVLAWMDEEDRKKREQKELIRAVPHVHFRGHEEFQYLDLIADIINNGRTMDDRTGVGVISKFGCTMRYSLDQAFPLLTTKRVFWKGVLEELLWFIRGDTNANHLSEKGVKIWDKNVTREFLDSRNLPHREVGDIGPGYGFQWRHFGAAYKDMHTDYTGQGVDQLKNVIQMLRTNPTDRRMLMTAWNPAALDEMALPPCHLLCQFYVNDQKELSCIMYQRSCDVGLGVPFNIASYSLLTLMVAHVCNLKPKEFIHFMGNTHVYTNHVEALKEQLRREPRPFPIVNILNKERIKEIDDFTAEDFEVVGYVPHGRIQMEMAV
Description: Inhibitory concentration against Toxoplasma gondii DHFR

Test [6] in a line: Concentration causing inhibition of CCRF-CEM human leukemic lymphoblasts growth in 72 hr culture. Type of test: functional, cell-based.
Test [7] in a line: Concentration causing inhibition of CCRF-CEM human leukemic lymphoblasts growth in a 72 hr culture. It is filed as functional, cell-based.

One may read the IC50 as the concentration that inhibits the measured activity by half. A lower IC50 goes with greater potency in that assay. For the molecule `CCOC(=O)CCCOc1ccc(OC)cc1Cc1cnc2nc(N)nc(N)c2c1C`, the concentration for half-maximal inhibition (IC50) against Dihydrofolate reductase [1] was found to be 93 nM; at Dihydrofolate reductase [2], 5.6 nM; against Dihydrofolate reductase [3], 83 nM; in test [5], 10 nM. In test [4], this molecule had a Selectivity index of 17.

In the case of `CCOC(=O)CCCOc1ccc(OC)c(Cc2cnc3nc(N)nc(N)c3c2C)c1`, the IC50 was 4.2 nM on Dihydrofolate reductase [1], 1.8 nM at Dihydrofolate reductase [2], 6.5 nM on Dihydrofolate reductase [3] and 3.4 nM in test [5]. Also, the Selectivity index in test [4] came to 2.3.

As for `COc1cc(Cc2cnc(N)nc2N)cc(C#CCCC(=O)O)c1Br`, the IC50 came out at 630 nM on Dihydrofolate reductase [1], 0.47 nM at Dihydrofolate reductase [2], 71 nM on Dihydrofolate reductase [3] and 15 nM in test [5]. In test [4], this molecule had a Selectivity index of 1300.

`COc1ccc(I)cc1Cc1cnc2nc(N)nc(N)c2c1C`: the 50% inhibitory concentration (IC50) turned out to be 5 nM on Dihydrofolate reductase [1], 0.92 nM at Dihydrofolate reductase [2], 5.8 nM against Dihydrofolate reductase [3] and 4.1 nM in test [5]. Further, the Selectivity index in test [4] was 5.4.

In the case of `Nc1nc(N)c2nc(CN3c4ccccc4C=Cc4c(C#CCCCC(=O)O)cccc43)cnc2n1`, the IC50 stood at 1300 nM against Dihydrofolate reductase [1], 6.3 nM at Dihydrofolate reductase [2], 12 nM on Dihydrofolate reductase [3] and 21 nM in test [5]. In test [4], the Selectivity index turned out to be 210.

Regarding `Nc1nc(N)c2nc(CN3c4ccccc4C=Cc4c(C#CCCC(=O)O)cccc43)cnc2n1`, the half-maximal inhibitory concentration (IC50) on Dihydrofolate reductase [1] is 560 nM; on Dihydrofolate reductase [2] it was 2.9 nM; against Dihydrofolate reductase [3] it was 230 nM; in test [5], 77 nM. The molecule further yielded a Selectivity index in test [4] of 190.

Turning to `COc1ccc(OCCCCCC(=O)O)cc1Cc1cnc2nc(N)nc(N)c2c1C`, the IC50 against Dihydrofolate reductase [1] came to 2 nM; at Dihydrofolate reductase [2], 0.35 nM; on Dihydrofolate reductase [3] it was 1.3 nM; in test [5], 2 nM. In test [4], this molecule had a Selectivity index of 5.9.

As to `COc1ccc(OCCCCC(=O)O)cc1Cc1cnc2nc(N)nc(N)c2c1C`, the IC50 at Dihydrofolate reductase [1] was determined as 2.2 nM; on Dihydrofolate reductase [2] it was 0.29 nM; against Dihydrofolate reductase [3] it was 0.51 nM; in test [5] it was 2.3 nM. The molecule further yielded a Selectivity index in test [4] of 7.5.

Turning to `COc1ccc(C#CCCCC(=O)O)c(Cc2cnc3nc(N)nc(N)c3c2C)c1`, the IC50 at Dihydrofolate reductase [1] worked out at 24 nM; on Dihydrofolate reductase [2] it was 1.3 nM; in test [6], 2.8 µM; at Dihydrofolate reductase [3], 1.2 nM; in test [5], 5.8 nM. Moreover, the Selectivity index in test [4] was 18.

Consider `COc1ccc(OCc2ccccc2)c(Cc2cnc3nc(N)nc(N)c3c2C)c1`, for which the concentration for half-maximal inhibition (IC50) was determined as 170 nM against Dihydrofolate reductase [1], 8.6 nM on Dihydrofolate reductase [2], 96 nM against Dihydrofolate reductase [3] and 16 nM in test [5]. The same molecule registered a Selectivity index in test [4] of 20.

For the molecule `COc1ccc(I)c(Cc2cnc3nc(N)nc(N)c3c2C)c1`, the half-maximal inhibitory concentration (IC50) on Dihydrofolate reductase [1] came out at 4 nM; against Dihydrofolate reductase [2], 1.8 nM; against Dihydrofolate reductase [3], 3.8 nM; in test [5] it was 5.8 nM. The Selectivity index in test [4] stood at 2.2.

`COc1ccc(OCCCC(=O)O)cc1Cc1cnc2nc(N)nc(N)c2c1C`: the IC50 is 2.2 nM against Dihydrofolate reductase [1]; 0.26 nM against Dihydrofolate reductase [2]; 3.7 µM in test [6]; 0.43 nM against Dihydrofolate reductase [3]; 1.9 nM in test [5]. This molecule registered a Selectivity index in test [4] of 8.5.

For `CCOC(=O)CCCCCOc1ccc(OC)c(Cc2cnc3nc(N)nc(N)c3c2C)c1`, the half-inhibitory concentration (IC50) came to 21 nM at Dihydrofolate reductase [1], 12 nM at Dihydrofolate reductase [2], 35 nM on Dihydrofolate reductase [3] and 13 nM in test [5]. In test [4], this molecule registered a Selectivity index of 1.8.

Regarding `CCOC(=O)CCCCOc1ccc(OC)c(Cc2cnc3nc(N)nc(N)c3c2C)c1`, the half-inhibitory concentration (IC50) on Dihydrofolate reductase [1] amounted to 14 nM; on Dihydrofolate reductase [2], 9.4 nM; against Dihydrofolate reductase [3] it was 28 nM; in test [5], 11 nM. This molecule came in with a Selectivity index in test [4] of 1.5.

On to `COc1ccc(C#CCCC(=O)O)c(Cc2cnc3nc(N)nc(N)c3c2C)c1`, for which the IC50 on Dihydrofolate reductase [1] amounted to 55 nM; against Dihydrofolate reductase [2] it was 0.57 nM; against Dihydrofolate reductase [3], 0.65 nM; in test [5] it was 4.1 nM. Also, in test [4], the Selectivity index turned out to be 96.

On to `COc1ccc(OC)c(Cc2cnc3nc(N)nc(N)c3c2C)c1` [PIRITREXIM], for which the IC50 in test [7] amounted to 0.013 µM. That is a double-digit nanomolar value.

Take `COc1ccc(OCCCC(=O)O)c(Cc2cnc3nc(N)nc(N)c3c2C)c1`: the 50% inhibitory concentration (IC50) on Dihydrofolate reductase [1] was 9.1 nM; on Dihydrofolate reductase [2] it was 0.32 nM; in test [6] it was 5.3 µM; on Dihydrofolate reductase [3], 0.17 nM; in test [5] it was 2.3 nM. Further, the Selectivity index in test [4] came to 28.

For `COc1ccc(C#CCCCC(=O)O)cc1Cc1cnc2nc(N)nc(N)c2c1C`, the IC50 in test [7] worked out at 6.1 µM; against Dihydrofolate reductase [1] it was 5.7 nM; against Dihydrofolate reductase [2], 1 nM; against Dihydrofolate reductase [3], 1.4 nM; in test [5] it was 4.3 nM. The Selectivity index in test [4] amounted to 5.6.

For `COc1ccc(C#CCCC(=O)O)cc1Cc1cnc2nc(N)nc(N)c2c1C`, the IC50 at Dihydrofolate reductase [1] is 0.32 nM; at Dihydrofolate reductase [2] it was 0.057 nM; on Dihydrofolate reductase [3], 0.097 nM; in test [5] it was 0.46 nM. The molecule also gave a Selectivity index in test [4] of 5.6.

Regarding `COc1ccc(C#CCCCCC(=O)O)cc1Cc1cnc2nc(N)nc(N)c2c1C`, the IC50 on Dihydrofolate reductase [1] came to 4 nM; against Dihydrofolate reductase [2], 0.69 nM; against Dihydrofolate reductase [3], 1.8 nM; in test [5], 3.2 nM. Besides, in test [4], the Selectivity index was determined as 5.8.
